PMC1073692, “An Unbiased Cell Morphology–Based Screen for New, Biologically Active Small Molecules” (PLoS Biology, 2005)
≈ marks a conversion by molar mass, not a printed value. Where “and” joins values, the source holds several entries; their conditions need not be identical. Identical values can stand only once. Entries after “also recorded” stand apart in the source; their conditions may differ. Like-named read-outs stand apart in the source and are kept apart here.

Assays:
[1] = test system: A549, DU145, HUVEC, SF268 and SKOV3 cells; assay: Cytometrix cell morphology-based screen; parameters: species or system human; settings: for Cytometrix phenotype (PCA trajectory): 6 nM to 40 μM; for EC50: Homo sapiens, read-out: Approximate EC50 (distance in PCA space from DMSO controls); for Potency in Cytometrix relative to parent compound (fold lower): linker analog vs parent, data not shown
Procedure: SKOV3 (ovarian epithelial cancer), A549 (lung epithelial cancer), and SF268 (central nervous system epithelial cancer) were chosen for their broad genetic diversity and obtained from the National Institutes of Health. These human cells were grown and maintained in RMPI medium (Mediatech, Herndon, Virginia, United States) with 5% fetal calf serum (FBS, HyClone, Logan, Utah, United States). DU145 (prostate epithelial cancer) cells ( ATTC, Manassas, Virginia, United States) were maintained in MEM with 5% FBS. HUVEC cells (VEC Technologies, Rensselaer, New York, United States) were maintained in MCDB131 medium (VEC Technologies) with 10% FBS. For the assays 1,000–1,800 trypsinized (Mediatech) cells per well (depending on cell type) were plated in 384-well plates (Corning Costar, Acton, Massachusetts, United States) using a Multidrop (Thermo Labsystems, Beverly, Massachusetts, United States) and incubated for 24 h, the approximate doubling time. Six cell plates were made for each cell line.
Compound stocks were maintained in DMSO. Compound information was stored in ActivityBase (ID Business Solutions, Guildford, United Kingdom). Compounds were serially diluted in 384-well drug plates to achieve eight concentrations diluting 3× in DMSO between wells using a Multimek (Beckman Coulter, Fullerton, California, United States). Wells were reserved on every drug plate for negative and positive controls. Negative-control wells contained DMSO only and the positive-control wells received a titration of paclitaxel, a tubulin stabilizer (Sigma-Aldrich-Fluka, St. Louis, Missouri, United States). […] Small molecules were tested at 40 μM on cells based on the logic that cellular effects on cells at […] concentration are most likely nonspecific and that we would most likely get a full-dose response after eight 3-fold dilutions (6 nM to 40 μM final concentrations).
Compounds were added to cell plates from drug plates. Compound mixed with medium was added to the cells to achieve a 0.4% DMSO concentration on prepared cell plates using a PlateTrak (CCS Packard, Torrance, California, United States). Treated cells were incubated for another 24 h, the compound exposure time.
Cells were stained for visualization of the nuclei, Golgi apparatus, and microtubules. Cells were fixed with 4% formaldehyde (Polysciences, Warrington, Pennsylvania, United States) for 1 h; washed in TBS (Teknova, Half Moon Bay, California, United States); blocked in 0.01% Triton X-100 (ICN Biomedicals, Irvine, California, United States) and 1% BSA in TBS (Teknova) and then left to incubate for 1 h; stained with 0.01% Triton X-100, 0.1% BSA, 5 μg/ml Hoechst 33342 (Molecular Probes, Eugene, Oregon, United States), 5 μg/ml FITC-Lectin Lens Culinaris (Sigma-Aldrich-Fluka), and 3 μg/ml Rhodamine Red–labeled monoclonal antibody DM1α (courtesy of Tim Stearns) for 1 h; and then washed in TBS. All of these steps were performed with a PlateTrak using an ELx405 microplate washer (Bio-Tek Instruments, Winooski, Vermont, United States). This was done in triplicate for each cell line.
Cells were imaged on an inverted Axiovert 100M epifluorescent microscope (Carl Zeiss, Oberkochen, Germany) with a 5× objective and a Xenon lamp (Sutter Instruments, Novato, California, United States). A 5× magnification was chosen (rather than 40×) primarily as a function of the need to acquire a large number of individual cells in order to gather statistically relevant data on relatively rare subpopulations. The number of cells in a randomly acquired 40× image is not sufficient to make meaningful statistical measurements across many cells. Metamorph (Universal Imaging, Downingtown, Pennsylvania, United States) was used to control the motorized x, y, z stage (Prior Scientific, Rockland, Massachusetts, United States) that moved the plate to each well, autofocused, and took three successive fluorescent images with an Orca 100 camera (Hamamatsu, Hamamatsu City, Japan). […]

protein kinase B = target: T1, protein kinase B (Homo sapiens, UniProt P31749); assay: Kinase disk assay (32P transfer to peptide), PKB; assay type: biochemical; settings: 25 min, read-out: Relative activity @ 1 µM inhibitor PKB
T1 construct: purchased Upstate Cell Signaling Specialties
T1 sequence (P31749 whole entry, species assumed): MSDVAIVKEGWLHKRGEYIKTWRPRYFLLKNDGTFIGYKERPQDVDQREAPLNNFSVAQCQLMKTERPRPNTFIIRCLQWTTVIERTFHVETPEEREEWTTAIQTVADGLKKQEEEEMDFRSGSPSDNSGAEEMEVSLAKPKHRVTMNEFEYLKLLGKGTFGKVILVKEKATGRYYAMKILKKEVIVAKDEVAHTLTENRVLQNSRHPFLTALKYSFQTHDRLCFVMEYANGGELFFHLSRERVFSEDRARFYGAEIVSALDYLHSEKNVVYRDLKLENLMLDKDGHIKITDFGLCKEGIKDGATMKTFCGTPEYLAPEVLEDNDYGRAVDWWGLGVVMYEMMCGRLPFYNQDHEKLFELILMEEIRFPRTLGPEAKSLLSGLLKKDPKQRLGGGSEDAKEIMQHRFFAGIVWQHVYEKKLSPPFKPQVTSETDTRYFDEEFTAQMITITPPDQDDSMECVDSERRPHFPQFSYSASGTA
Procedure: (§1) Fyn and p38 kinases were expressed in bacteria and purified as previously described. Protein kinase A and Protein kinase B were obtained commercially (Upstate Cell Signaling Specialties Charlottesville, Virginia, United States). […] Reaction mixtures (27 μl) were spotted onto a phosphocellulose disk and washed with 0.5% H3PO4. The transfer of ^32P was measured by standard scintillation counting. […] When the IC50 value fell between two measured concentrations, it was calculated based on the assumption of an inversely proportional relationship between inhibitor concentration and counts per minute between the two data points.
(§2) IC50 values against Fyn and p38 are given (left), and percentage activity of PKA and PKB in presence of the inhibitors are given (right). Kinase activity was determined using a standardized disk assay based on the P^32 transfer to a synthetic peptide (See Materials and Methods). […] Peptide subrate sequences for each kinase are shown below:
bzRPRTSSF (100 µM) was used as the susbtrate for PKB.

p38-α = target: T2, p38-α (Homo sapiens, UniProt Q16539); assay: Kinase disk assay (32P transfer to peptide), p38; assay type: biochemical; settings: Table S3; […] 100 µM substrate, 11 nM [γ-32P]ATP
T2 construct: made in house; host or cells: bacteria
T2 sequence (Q16539 whole entry): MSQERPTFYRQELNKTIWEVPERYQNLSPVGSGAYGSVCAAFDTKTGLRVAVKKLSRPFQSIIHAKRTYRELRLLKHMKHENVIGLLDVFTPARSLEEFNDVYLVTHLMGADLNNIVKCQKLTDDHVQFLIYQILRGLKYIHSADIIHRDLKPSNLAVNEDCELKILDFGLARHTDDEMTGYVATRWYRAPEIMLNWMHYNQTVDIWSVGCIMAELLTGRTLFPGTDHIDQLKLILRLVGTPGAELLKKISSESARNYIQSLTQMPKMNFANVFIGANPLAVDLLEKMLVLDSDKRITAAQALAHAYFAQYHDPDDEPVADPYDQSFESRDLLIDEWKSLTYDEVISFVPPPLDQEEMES
Procedure: as §1, §2
[…] (100 µM) was used as the substrate for p38.

protein kinase A = target: T3, protein kinase A (Homo sapiens, UniProt P17612); assay: Kinase disk assay (32P transfer to peptide), PKA; assay type: biochemical; settings: remaining kinase activity
T3 construct: purchased Upstate Cell Signaling Specialties
Procedure: as §1, §2
bzRRASLG (100 µM) was used as the susbtrate for PKA.

[2] = Solubility limit in the CBR1 assay; assay type: physicochemical
Fyn = target: T4, Fyn (Homo sapiens, UniProt P06241); assay: Kinase disk assay (32P transfer to peptide), Fyn; assay type: biochemical
T4 construct: made in house; host or cells: bacteria
T4 sequence (P06241 whole entry, species assumed): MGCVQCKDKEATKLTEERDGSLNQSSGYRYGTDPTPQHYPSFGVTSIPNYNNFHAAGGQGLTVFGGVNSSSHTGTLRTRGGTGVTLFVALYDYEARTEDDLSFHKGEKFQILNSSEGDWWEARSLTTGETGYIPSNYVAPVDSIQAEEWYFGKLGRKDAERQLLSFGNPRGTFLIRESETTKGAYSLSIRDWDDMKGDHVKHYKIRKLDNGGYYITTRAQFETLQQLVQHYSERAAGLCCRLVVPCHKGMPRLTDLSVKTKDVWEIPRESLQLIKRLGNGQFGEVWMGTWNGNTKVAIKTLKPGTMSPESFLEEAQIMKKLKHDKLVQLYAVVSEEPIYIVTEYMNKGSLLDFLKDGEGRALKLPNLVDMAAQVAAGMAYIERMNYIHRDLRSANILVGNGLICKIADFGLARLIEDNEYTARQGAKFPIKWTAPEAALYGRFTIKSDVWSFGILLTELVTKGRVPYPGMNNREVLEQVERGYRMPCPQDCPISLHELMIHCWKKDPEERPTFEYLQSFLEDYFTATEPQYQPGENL
Procedure: as §1, §2
[…] (100 µM) was used as the substrate for Fyn.

human CBR1 = target: T5, human CBR1 (Homo sapiens, UniProt P16152); assay: CBR1 assay (NADPH-dependent reduction of menadione, spectrophotometric)
T5 sequence (P16152 1-277): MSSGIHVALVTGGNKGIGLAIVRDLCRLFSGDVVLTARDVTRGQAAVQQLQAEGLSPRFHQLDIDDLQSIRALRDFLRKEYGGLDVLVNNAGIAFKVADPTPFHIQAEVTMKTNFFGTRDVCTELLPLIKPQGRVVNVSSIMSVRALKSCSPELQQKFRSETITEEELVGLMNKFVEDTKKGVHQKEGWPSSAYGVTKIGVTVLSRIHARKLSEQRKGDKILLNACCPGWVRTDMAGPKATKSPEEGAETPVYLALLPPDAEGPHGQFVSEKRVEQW
Procedure: CBR1 activity was determined spectrophotometrically at 25 °C. The standard assay mixture consisted of 50 mM sodium phosphate (pH 6.8), 200 μM NADPH, and 200 μM menadione in a total volume of 1 ml. Compounds were dissolved in DMSO as 100× stock solutions. Reactions were initiated by the addition of enzyme, and initial rates were determined by monitoring the disappearance of NADPH at 340 nM. Controls without substrates or enzyme were routinely included.

A549 cells [3] = assay: PI-stained cell assay, serum-withdrawal-induced apoptosis; assay type: cell-based, human; settings: for Protection against serum-withdrawal-induced apoptosis (PI staining): 65 h following serum withdrawal; for Enhancement of induction of apoptosis by cell stresses: A549, interferon-γ + Fas ligand, H2O2, interleukin-1β, serum withdrawal, interleukin-1β + serum withdrawal, data not shown
From the text: We chose to focus on signals that induce apoptosis in A549 adenocarcinoma cells because this endpoint is important for many cell-fate decisions, including those relevant to cancer and inflammation. CBR1 has been directly implicated in redox reactions leading to H2O2 generation, a known stimulus for apoptosis. A549 cells were subjected to a wide range of cell stresses previously shown to induce apoptosis: (1) interferon-γ + Fas ligand, (2) H2O2, (3) interleukin-1β, (4) serum withdrawal, or (5) interleukin-1β + serum withdrawal.
(§3) Cell viability was determined by the alamarBlue reagent reduction assay in a 96-well culture plate, measuring the absorbance at 570 and 600 nm spectrophotometrically. The amount of PI-stained cells was estimated by measuring fluorescence following incubation with PI (5 μg/ml). For both experiments, data are shown as the percentages of nontreated control cells.

A549 cells [4] = assay: Cell viability assay (alamarBlue reduction), daunorubicin combination; assay type: cell-based, human; settings: for Cytotoxicity on A549 cells when used alone: 8 μM; for Enhancement of daunorubicin-mediated A549-cell killing: 8 μM compound with 440 nM daunorubicin
From the text: To test this hypothesis, we measured the ability of hydroxy-PP-Me and PP-L to block CBR1-mediated metabolism of daunorubicin in A549 cells using cell killing as a measure of the cellular status of daunorubicin metabolism. […] Hydroxy-PP-Me induced a 25% enhancement of daunorubicin-mediated A549-cell killing consistent with its ability to inhibit CBR1-mediated daunorubicin metabolism. […] Although the observed 25% enhancement of daunorubicin-mediated cell killing is modest, the hydroxy-PP-Me dose dependence (Figure 5B) of this effect is further evidence that it is CBR1 mediated rather than a general toxic response.
A549 cells were purchased from ATCC and cultured in the F-12K medium with 10% of FBS. Cells were maintained at 37 °C in an atmosphere of 5% CO2. Adherant cells were released for passaging using an isotonic Trypsin solution (0.25% Trypsin, 0.02% Versene). Rabbit anti-human CBR1 antibody was obtained from Dr. Tsuchida. The CBR expression vector, pET-11aCR, was obtained from Dr. Wermuth.
as §3

[5] = 1 µM inhibitor, remaining kinase activity
[6] = Table S3, LEEIYGEFKKK 100 µM substrate, 11 nM [γ-32P]ATP, read-out: IC50 (nM) Fyn
[7] = read-out: IC50 against Fyn (Figure 3)
[8] = IC50 against CBR1, 200 μM NADPH, 200 μM menadione, pH 6.8, 25 °C

| IC50 (p38-α) | activity at 1 µM (protein kinase B; [5]) | Relative activity @ 1 µM inhibitor PKA (protein kinase A) | IC50 (Fyn; [7]) | IC50 (human CBR1; [8]) | Compound | Cytometrix phenotype (PCA trajectory) ([1]; 24 h, five cell types) | Protection against serum-withdrawal-induced apoptosis (PI staining) (A549 cells [3]; A549 cells) | further results |
| --- | --- | --- | --- | --- | --- | --- | --- | --- |
| – | – | – | – | – | COC(=O)[C@@]1(O)C[C@H]2O[C@]1(C)n1c3ccccc3c3c4c(c5c6ccccc6n2c5c31)C(=O)NC4 [K252a, reference compound] | dose-dependent morphological changes in A549, DU145, HUVEC, and SF268 cells but not SKOV3 cells | – | – |
| – | – | – | – | – | CC(C)(C)n1nc(-c2ccc(Cl)cc2)c2c(N)ncnc21 [PP2, 1-tert-butyl-3-(4-chlorophenyl)-1H-pyrazolo[3,4-d]pyrimidin-4-amine, reference compound] | – | – | activity at 1 µM (protein kinase B): 103%; EC50 ([1]; 24 h): ~129 µM |
| 4000 nM | 92% | 92% | 50 nM | > 200000 nM | CC(C)(C)n1nc(-c2ccccc2)c2c(N)ncnc21 [PP, 1-tert-butyl-3-phenyl-1H-pyrazolo[3,4-d]pyrimidin-4-amine, reference compound] | phenotypic profile comparable to PP2 | – | solubility [2]: 200 µM (≈ 53.5 µg/mL); IC50 (Fyn; [6]): 110 nM; Inhibition of CBR1 activity (human CBR1; up to solubility limit of 200 μM): no inhibition |
| – | – | – | – | – | CCOCCn1nc(-c2ccccc2)c2c(N)ncnc21 [PP-L] | – | does not | Cytotoxicity on A549 cells when used alone (A549 cells [4]): minimal cytotoxicity; Enhancement of daunorubicin-mediated A549-cell killing (A549 cells [4]): no enhancement of cell killing; Potency in Cytometrix relative to parent compound (fold lower) [1]: approximately 5 fold |
| – | – | – | – | – | COc1cccc2c1C(=O)c1c(O)c3c(c(O)c1C2=O)C[C@@](O)(C(C)=O)C[C@@H]3O[C@H]1C[C@H](N)[C@H](O)[C@H](C)O1 [daunorubicin, reference compound] | – | – | IC50 (A549 cells [4]; Homo sapiens, A549, read-out: Approximate IC50 for cell killing as a single agent): ~440 nM |
| 17000 nM | 91% | 110% | 5 nM | 788 nM | CC(C)(C)n1nc(-c2cccc(O)c2)c2c(N)ncnc21 [hydroxy-PP, 3-(1-tert-butyl-4-amino-1H-pyrazolo[3,4-d]pyrimidin-3-yl)phenol] | distinct from the phenotypes induced by kinase inhibitors and the microtubule depolymerization inhibitors | able to block A549-cell apoptosis | Enhancement of induction of apoptosis by cell stresses (A549 cells [3]): no enhancement; EC50 ([1]; 24 h treatment, five cell types, concentration of Figure 1D, called approximately the EC50): ~0.4 µM; IC50 (human CBR1; IC50 against CBR1, re-screen of the screening collection, data not shown): < 1000 nM |
| – | – | – | – | – | CCOCCn1nc(-c2cccc(O)c2)c2c(N)ncnc21 [hydroxy-PP-L] | – | protects A549 cells against serum-withdrawal-induced apoptosis, although to a lesser extent than hydroxy-PP-Me | Protection against serum-withdrawal-induced apoptosis (PI staining) (A549 cells [3]; A549 cells, listed as Hydroxy-PP-L): dose-dependent decrease in PI staining; Potency in Cytometrix relative to parent compound (fold lower) [1]: approximately 5 fold |
| > 50000 nM | 95% | 106% | 70000 nM and > 70000 nM | 759 nM | CNc1ncnc2c1c(-c1cccc(O)c1)cn2C(C)C [hydroxy-PP-Me, 3-(7-isopropyl-4-(methylamino)-7H-pyrrolo[2,3-d]pyrimidin-5yl)phenol] | – | dose-dependent decrease in PI staining; also recorded: almost completely protected against apoptosis | Enhancement of induction of apoptosis by cell stresses (A549 cells [3]): no enhancement; Apoptosis induced by serum withdrawal blocked (A549 cells [3]; A549 cells): more than 90%; Cytotoxicity on A549 cells when used alone (A549 cells [4]): minimal cytotoxicity; Enhancement of daunorubicin-mediated A549-cell killing (A549 cells [4]): 25%; Cell viability with concomitant daunorubicin treatment (A549 cells [4]; 1–8 μM compound plus daunorubicin): dose-dependent decrease in cell viability; IC50 (Fyn; [6]): > 50000 nM |
| – | – | – | – | – | CC(=O)O[C@H]1C(=O)[C@@]2(C)[C@H]([C@H](OC(=O)c3ccccc3)[C@]3(O)C[C@H](OC(=O)[C@H](O)[C@@H](NC(=O)c4ccccc4)c4ccccc4)C(C)=C1C3(C)C)[C@]1(OC(C)=O)CO[C@@H]1C[C@@H]2O [paclitaxel, reference compound] | pronounced and highly reproducible trajectory | – | – |
